Measured values published in patent US20130143942A1, “METHODS OF CONTROLLING NEONICOTINOID RESISTANT APHIDS” (SYNGENTA CROP PROTECTION LLC, priority 2010, published 2013).

Assays:
[1] = tested on: neonicotinoid insecticide resistant aphid strain; assay: leaf disc spray bioassay, aphid mortality 72 hours after treatment, resistant strain; format: in vivo; conditions: mixed age aphids on chinese cabbage leaf discs, sprayed in Potter Tower, resistant strain collected from peach orchard, Avignon region, 2009
Method: (§1) The following bioassay methodology was utilized to generate the data included in the table:
(§2) 5 cm leaf discs were taken from fully expanded chinese cabbage leaves and placed with the underside facing upwards onto water agar in 5 cm Petri dishes. The leaf discs are infested with between 30 and 40 mixed age aphids 24 hours prior to insecticide treatment. The leaf surface is sprayed with the appropriate test solutions in a Burkhard Potter Tower at an approximate water volume of 450 l/ha. Test containers are stored at 21° C., 60% RH and 16:8 light/dark. Aphids were assessed for mortality 72 hours after treatment.

[2] = tested on: neonicotinoid insecticide susceptible strain 4106A; assay: leaf disc spray bioassay, aphid mortality 72 hours after treatment, susceptible strain; format: in vivo; conditions: mixed age aphids on chinese cabbage leaf discs, sprayed in Potter Tower, susceptible strain 4106A (Rothamsted Research)
Method: as §1, §2

CCOC(=O)OC1=C(c2cc(C)ccc2C)C(=O)N[C@]12CC[C@@H](OC)CC2 [sprirotetramat, cis-3-(2,5-dimethylphenyl)-8-methoxy-2-oxo-1-azaspiro[4.5]dec-3-en-4-yl ethyl carbonate]
LC50 with 95% confidence limit, resistant strain [1]: 1.58 (1.14-2.23) ppm
LC50 with 95% confidence limit, susceptible strain [2]: 0.88 (0.60-1.22) ppm
